From ChEMBL document CHEMBL3739396, “5-Aryl-1-imino-1-oxo-[1,2,4]thiadiazines” (ACS Med Chem Lett, 2015)

Target: Beta-secretase 1 (Homo sapiens, UniProt P56817)
Test: Inhibition of human BACE1 in HEK293 cells expressing APP assessed as decrease in amyloid beta-40 level after 18 to 20 hrs
Type: cell-based

Beta-secretase 1, sequence (P56817 whole entry): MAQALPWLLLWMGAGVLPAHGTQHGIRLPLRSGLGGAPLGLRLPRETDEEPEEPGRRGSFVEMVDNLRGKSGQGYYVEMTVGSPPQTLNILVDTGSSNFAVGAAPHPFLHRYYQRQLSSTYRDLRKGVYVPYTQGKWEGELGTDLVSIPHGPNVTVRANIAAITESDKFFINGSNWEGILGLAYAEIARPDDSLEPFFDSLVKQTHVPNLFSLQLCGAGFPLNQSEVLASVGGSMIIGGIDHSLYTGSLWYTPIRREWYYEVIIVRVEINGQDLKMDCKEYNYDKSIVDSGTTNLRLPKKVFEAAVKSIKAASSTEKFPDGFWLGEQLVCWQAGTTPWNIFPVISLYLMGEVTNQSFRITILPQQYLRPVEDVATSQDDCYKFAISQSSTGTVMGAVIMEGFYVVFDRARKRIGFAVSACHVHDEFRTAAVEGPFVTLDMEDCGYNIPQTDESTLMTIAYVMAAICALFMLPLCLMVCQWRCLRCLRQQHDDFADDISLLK

With `C[C@@]1(c2cc(NC(=O)c3ccc(C#N)cn3)ccc2F)C[S@]2(=O)=NCCCCN2C(N)=N1` the IC50 was 2 nM.
`C[C@@]1(c2cc(-c3cc(-c4ncc(Cl)cn4)no3)ccc2F)C[S@]2(=O)=NCCCCN2C(N)=N1` was tested, and the IC50 was 9.5 nM.
`C[C@@]1(c2cc(-c3cn(-c4ccc(C#N)cn4)nn3)ccc2F)C[S@]2(=O)=NCCCCN2C(N)=N1` showed an IC50 of 9.5 nM.
